Converted amounts (≈) assume the structure as drawn. Some results are limits rather than exact numbers.

MIC data for 7 compounds are collected here from patent publication USRE39591E1, “6-O-substituted ketolides having antibacterial activity” (Abbott Laboratories, priority 1996, dated 2007).

The test deals with up to 32 different microorganisms. Description: in vitro antibacterial activity (MIC), agar dilution on Brain Heart Infusion (BHI) agar with Steers replicator. It counts as cell-based. The conditions noted are these: unit assumed. How it is done: Representative compounds of the present invention were assayed in vitro for antibacterial activity as follows: Twelve petri dishes containing successive aqueous dilutions of the test compound mixed with 10 mL of sterilized Brain Heart Infusion (BHI) agar (Difco 0148-01-5) were prepared. Each plate was inoculated with 1:100 (or 1:10 for slow-growing strains, such as Micrococcus and Streptococcus) dilutions of up to 32 different microorganisms, using a Steers replicator block. The inoculated plates were incubated at 35°-37° C. for 20 to 24 hours. In addition, a control plate, using BHI agar containing no test compound, was prepared and incubated at the beginning and end of each test.
An additional plate containing a compound having known susceptibility patterns for the organisms being tested and belonging to the same antibiotic class as the test compound was also prepared and incubated as a further control, as well as to provide test-to-test comparability. Erythromycin A was used for this purpose.
After incubation, each plate was visually inspected. The minimum inhibitory concentration (MIC) was defined as the lowest concentration of drug yielding no growth, a slight haze, or sparsely isolated colonies on the inoculum spot as compared to the growth control.
On the technique in general: In agar dilution the substance is mixed into plates at graded concentrations.

[1] abbreviates: Candida albicans CCH 442 (code TT).
[2] abbreviates: Enterococcus faecism ATCC 8043 (code II).
Setting [3] is: Escherichia coli DC-2 (code SS).
The mark [4] stands for this setting: Escherichia coli JUHL (code QQ).
Setting [5] is: Haemophilis influenzae DILL AMP R (code WW).
The mark [6] stands for this setting: Micrococcus luteus ATCC 4698 (code PP).
[7] abbreviates: Micrococcus luteus ATCC 9341 (code OO).
Where [8] appears, read: Mycobacterium smegmatis ATCC 114 (code UU).
[9] abbreviates: Nocardia Asteroides ATCC9970 (code VV).
The mark [10] stands for this setting: Staphylococcus aureus 1775 (code GG).
The mark [11] stands for this setting: Staphylococcus aureus A5177 (code BB).
[12] abbreviates: Staphylococcus aureus A-5278 (code CC).
The mark [13] stands for this setting: Staphylococcus aureus ATCC 6538P (code AA).
The mark [14] stands for this setting: Staphylococcus aureus CMX 553 (code FF).
Where [15] appears, read: Staphylococcus aureus CMX 642A (code DD).
Setting [16] is: Staphylococcus aureus NCTC10649M (code EE).
Setting [17] is: Staphylococcus epidermidis 3519 (code HH).
Setting [18] is: Streptococcus Pneumonia 5649 (code ZZA).
[19] abbreviates: Streptococcus Pneumonia 5979 (code ZZ).
[20] abbreviates: Streptococcus Pneumonia ATCC6303 (code XX).
The mark [21] stands for this setting: Streptococcus Pneumonia GYR 1171 (code YY).
[22] abbreviates: Streptococcus agalactiae CMX 508 (code KK).
The mark [23] stands for this setting: Streptococcus bovis A-5169 (code JJ).
Setting [24] is: Streptococcus pyogenes 930 (code MM).
Setting [25] is: Streptococcus pyogenes EES61 (code LL).
Setting [26] is: Streptococcus pyogenes PIU 2548 (code NN).

Regarding `CC[C@H]1OC(=O)[C@H](C)C(=O)[C@H](C)[C@@H](O[C@@H]2O[C@H](C)C[C@H](N(C)C)[C@H]2O)[C@@](C)(OCC=O)C[C@@H](C)C(=O)[C@H](C)[C@H]2NC(=O)O[C@@]21C` [Example 220, Compound of Formula (IX): L is CO, T is NH, R is —CH2C(O)H], the MIC runs as follows: (organism code AA) 0.2 mg/L; (organism code BB) 0.39 mg/L; (organism code CC) above 100 mg/L; (organism code DD) 0.2 mg/L; (organism code EE) 0.2 mg/L; (organism code FF) 0.2 mg/L. Also, the MIC runs as follows: (organism code GG) above 100 mg/L; (organism code HH) 0.2 mg/L; (organism code II) 0.05 mg/L; (organism code JJ) at most 0.005 mg/L; (organism code KK) 0.02 mg/L; (organism code LL) 0.01 mg/L. Also, the MIC is above 100 mg/L (organism code MM); 0.39 mg/L (organism code NN); 0.02 mg/L (organism code OO); 0.2 mg/L (organism code PP); 12.5 mg/L (organism code QQ); 0.1 mg/L (organism code RR). Moreover, the MIC (organism code SS) was determined as 12.5 mg/L; the MIC (organism code TT) was above 100 mg/L; the MIC (organism code UU) stood at 3.1 mg/L; the MIC (organism code VV) turned out to be 0.2 mg/L; the MIC (organism code WW) stood at 2 mg/L; the MIC (organism code XX) was 0.03 mg/L. The MIC by setting is: (organism code YY) 0.06 mg/L; (organism code ZZ) above 128 mg/L; (organism code ZZA) 2 mg/L.

As for `CC[C@H]1OC(=O)[C@H](C)C(=O)[C@H](C)[C@@H](O[C@@H]2O[C@H](C)C[C@H](N(C)C)[C@H]2O)[C@@](C)(OCC#Cc2ccc3cc(OC)ccc3c2)C[C@@H](C)C(=O)[C@H](C)[C@H]2NC(=O)O[C@@]21C` [Example 252, Compound of Formula (IX): L is CO, T is NH, R is —CH2—C≡C-(6-methoxy-2-naphthyl)], the MIC is, setting by setting: (organism code AA) 0.1 mg/L; (organism code BB) 0.1 mg/L; (organism code CC) above 100 mg/L; (organism code DD) 0.1 mg/L; (organism code EE) 0.1 mg/L; (organism code FF) 0.1 mg/L. Also, the MIC reads like this: (organism code GG) above 100 mg/L; (organism code HH) 0.1 mg/L; (organism code II) 0.05 mg/L; (organism code JJ) 0.002 mg/L; (organism code KK) 0.02 mg/L; (organism code LL) 0.05 mg/L. The MIC reads like this: (organism code MM) 3.1 mg/L; (organism code NN) 0.1 mg/L; (organism code OO) 0.02 mg/L; (organism code PP) 0.2 mg/L; (organism code QQ) above 100 mg/L; (organism code RR) 0.78 mg/L. Also, the MIC runs as follows: (organism code SS) above 100 mg/L; (organism code TT) above 100 mg/L; (organism code UU) 0.2 mg/L; (organism code VV) 0.05 mg/L; (organism code WW) 2 mg/L; (organism code XX) 0.03 mg/L. The MIC (organism code YY) was found to be 0.03 mg/L, the MIC (organism code ZZ) turned out to be 4 mg/L and the MIC (organism code ZZA) was found to be 0.25 mg/L.

In the case of `CC[C@H]1OC(=O)[C@H](C)C(=O)[C@H](C)[C@@H](O[C@@H]2O[C@H](C)C[C@H](N(C)C)[C@H]2O)[C@@](C)(OCC=Cc2ccccc2)C[C@@H](C)C(=O)[C@H](C)[C@@H](O)[C@]1(C)O` [Example 14, Compound of Formula (VIII): X is O, R is —CH2CH═CH-Phenyl], the MIC by setting is: under setting [1], above 100 mg/L; under setting [2], 0.78 mg/L; under setting [3], above 100 mg/L; under setting [4], above 100 mg/L; (Escherichia coli SS (code RR)) 6.2 mg/L; under setting [5], 128 mg/L. Further, the MIC was 0.78 mg/L under setting [6]; 0.39 mg/L under setting [7]; 3.1 mg/L under setting [8]; 3.1 mg/L under setting [9]; above 100 mg/L under setting [10]; 1.56 mg/L under setting [11]. In addition, the MIC under setting [12] was above 100 mg/L; the MIC under setting [13] was found to be 1.56 mg/L; the MIC under setting [14] is 3.1 mg/L; the MIC under setting [15] is 3.1 mg/L; the MIC under setting [16] was 3.1 mg/L; the MIC under setting [17] came out at 1.56 mg/L. For the same compound, the MIC worked out at 2 mg/L under setting [18]; 128 mg/L under setting [19]; 1 mg/L under setting [20]; 0.25 mg/L under setting [21]; 0.2 mg/L under setting [22]; 0.2 mg/L under setting [23]. The MIC is, setting by setting: under setting [24], 50 mg/L; under setting [25], 0.39 mg/L; under setting [26], 0.78 mg/L.

Turning to `CCC1OC(=O)C(C)C(=O)C(C)C(OC2OC(C)CC(N(C)C)C2O)C(C)(OCC=Cc2cnc3cccc([N+](=O)[O-])c3c2)CC(C)C(=O)C(C)C2NC(=O)OC12C` (stereo not drawn) [Example 210, R is —CH2CH═CH-(5-nitro-3-quinolyl)], the MIC is, setting by setting: (organism code AA) 0.1 mg/L (≈ 0.123 µM); (organism code CC) above 100 mg/L; (organism code DD) 0.1 mg/L (≈ 0.123 µM); (organism code EE) 0.1 mg/L (≈ 0.123 µM); (organism code FF) 0.1 mg/L (≈ 0.123 µM); (organism code GG) above 100 mg/L. Further, the MIC was 0.1 mg/L (≈ 0.123 µM) (organism code HH); 0.02 mg/L (≈ 0.0247 µM) (organism code II); at most 0.005 mg/L (organism code JJ); at most 0.005 mg/L (organism code KK); 0.01 mg/L (≈ 0.0123 µM) (organism code LL); 0.78 mg/L (≈ 0.962 µM) (organism code MM). The MIC reads like this: (organism code NN) 0.2 mg/L (≈ 0.247 µM); (organism code OO) 0.02 mg/L (≈ 0.0247 µM); (organism code PP) 0.2 mg/L (≈ 0.247 µM); (organism code QQ) 50 mg/L (≈ 61.7 µM); (organism code RR) 0.2 mg/L (≈ 0.247 µM); (organism code SS) above 100 mg/L. The compound further returned an MIC (organism code TT) above 100 mg/L; an MIC (organism code UU) of 0.78 mg/L (≈ 0.962 µM); an MIC (organism code VV) of 0.02 mg/L (≈ 0.0247 µM); an MIC (organism code WW) of 3 mg/L (≈ 3.7 µM); an MIC (organism code XX) of 0.015 mg/L (≈ 0.0185 µM); an MIC (organism code YY) of at most 0.004 mg/L. The compound further returned an MIC (organism code ZZ) of 4 mg/L (≈ 4.93 µM) and an MIC (organism code ZZA) of 0.25 mg/L (≈ 0.308 µM).

Compound `CCC1OC(=O)C(C)C(=O)C(C)C(OC2OC(C)CC(N(C)C)C2O)C(C)(OCC=Cc2ccc3[nH]cnc3c2)CC(C)C(=O)C(C)C2NC(=O)OC12C` (stereo not drawn) [Example 205, R is —CH2CH═CH-(5-benzimidazolyl)] came in with an MIC (organism code XX) of 0.03 mg/L (≈ 0.0397 µM), an MIC (organism code YY) of 0.06 mg/L (≈ 0.0795 µM), an MIC (organism code ZZ) above 64 mg/L and an MIC (organism code ZZA) of 4 mg/L (≈ 5.3 µM).

In the case of `CCC1OC(=O)C(C)C(=O)C(C)C(OC2OC(C)CC(N(C)C)C2O)C(C)(OCC=Cc2cccc(-c3ccccc3)c2)CC(C)C(=O)C(C)C2NC(=O)OC12C` (stereo not drawn) [Example 280, Compound of Formula (IX): L is CO, T is NH2, R is —CH2CH═CH-(3-biphenyl)], the MIC by setting is: (organism code AA) 0.39 mg/L; (organism code BB) 0.39 mg/L; (organism code CC) 50 mg/L; (organism code DD) 0.39 mg/L; (organism code EE) 0.39 mg/L; (organism code FF) 0.39 mg/L. Also, the MIC was determined as 50 mg/L (organism code GG); 0.39 mg/L (organism code HH); 0.2 mg/L (organism code II); 0.05 mg/L (organism code JJ); 0.05 mg/L (organism code KK); 0.1 mg/L (organism code LL). The MIC is 12.5 mg/L (organism code MM); 0.39 mg/L (organism code NN); 0.1 mg/L (organism code OO); 0.78 mg/L (organism code PP); above 100 mg/L (organism code QQ); 1.56 mg/L (organism code RR). Besides, the MIC is above 100 mg/L (organism code SS); above 100 mg/L (organism code TT); 3.1 mg/L (organism code UU); 6.2 mg/L (organism code VV); 8 mg/L (organism code WW); 0.06 mg/L (organism code XX). Moreover, the MIC is, setting by setting: (organism code YY) 0.06 mg/L; (organism code ZZ) 16 mg/L; (organism code ZZA) 1 mg/L.

Turning to `CCC1OC(=O)C(C)C(=O)C(C)C(OC2OC(C)CC(N(C)C)C2O)C(C)(OCC=Cc2ccc3c(c2)OCCO3)CC(C)C(=O)C(C)C2NC(=O)OC12C` (stereo not drawn) [Example 192], the MIC reads like this: under setting [1], above 100 mg/L; under setting [2], 0.02 mg/L (≈ 0.0259 µM); under setting [3], 100 mg/L (≈ 129 µM); under setting [4], above 100 mg/L; (Escherichia coli SS (code RR)) 0.2 mg/L (≈ 0.259 µM); under setting [5], 4 mg/L (≈ 5.18 µM). Moreover, the MIC under setting [6] turned out to be 0.2 mg/L (≈ 0.259 µM); the MIC under setting [7] worked out at 0.01 mg/L (≈ 0.0129 µM); the MIC under setting [8] came to 3.1 mg/L (≈ 4.01 µM); the MIC under setting [9] is 0.1 mg/L (≈ 0.129 µM); the MIC under setting [10] is above 100 mg/L; the MIC under setting [11] worked out at 0.1 mg/L (≈ 0.129 µM). For the same compound, the MIC was above 100 mg/L under setting [12]; 0.1 mg/L (≈ 0.129 µM) under setting [13]; 0.1 mg/L (≈ 0.129 µM) under setting [14]; 0.1 mg/L (≈ 0.129 µM) under setting [15]; 0.2 mg/L (≈ 0.259 µM) under setting [16]; 0.1 mg/L (≈ 0.129 µM) under setting [17]. Moreover, the MIC was 0.25 mg/L (≈ 0.323 µM) under setting [18]; above 128 mg/L under setting [19]; 0.03 mg/L (≈ 0.0388 µM) under setting [20]; 0.03 mg/L (≈ 0.0388 µM) under setting [21]; 0.01 mg/L (≈ 0.0129 µM) under setting [22]; 0.01 mg/L (≈ 0.0129 µM) under setting [23]. This compound gave an MIC under setting [24] of 50 mg/L (≈ 64.7 µM), an MIC under setting [25] of 0.01 mg/L (≈ 0.0129 µM) and an MIC under setting [26] of 0.1 mg/L (≈ 0.129 µM).
